Results taken from patent US7759350B2, “Pyrimidine carboxamides” (Orchid Research Laboratories Ltd., priority 2005, dated 2010).

How the values were obtained:
[1] = test system: TNF-α; assay: In vitro measurement of TNF-α in human PBMC; format: cell-based; conditions: LPS; for IC50: TNF-α inhibition
Method: In Vitro Measurement of Tumor Necrosis Factor Alpha (TNF-α)
This assay determines the effect of test compounds on the production of TNF-α in human Peripheral Blood Mononuclear Cells (PBMC). Compounds were tested for their ability to inhibit the activity of TNF-α in human PBMC. PBMC were isolated from blood (from healthy volunteers) using BD Vacutainer CPT™ (Cell preparation tube, BD Bio Science) and suspended in RPMI medium (Physiol. Res. 52; 593-598, 2003). The test compounds were pre-incubated with PBMC (0.5 million/incubation well) for 15 minutes at 37° C. and then stimulated with Lipopolysaccharide (Escherichia coli: B4; 1 μg/ml) for 18 hours at 37° C. in 5% CO2. The levels of TNF-α in the cell culture medium were estimated using enzyme linked Immunosorbent assay performed in a 96 well format as per the procedure of the manufacturer (R&D Systems, Inc. 614 McKinley Place Nebr., Minneapolis, Minn. 55413, USA).

[2] = target: purified recombinant COX-1 enzyme (Homo sapiens, UniProt P23219); assay: COX-1 enzyme based assay; format: biochemical; conditions: Conc. 10 μM
Method: (§1) COX-1 and COX-2 Enzyme Based Assay
(§2) COX-2 enzyme based assays were carried out to check the inhibitory potential of test compounds on the production of prostaglandin by purified recombinant COX-1/COX-2 enzyme (Proc. Nat. Acad. Sci. USA, 88, 2692-2696, 1991; Clin. Immunoassay 15, 116-120, 1992) In this assay, the potential of the test compound to inhibit the production of prostaglandin either by COX-1 or COX-2 from arachidonic acid (substrate) was measured. This was an enzyme based in-vitro assay to evaluate selective COX inhibition with good reproducibility.
(§3) Arachidonic acid was converted to PGH2 (Intermediate product) by COX1/COX-2 in presence or absence of the test compound. The reaction was carried out at 37° C. and after 2 minutes it was stopped by adding 1M HCl. Intermediate products PGH2 was converted to a stable Prostanoid product PGF2α by SnCl2 reduction. The amount of PGF2α produced in the reaction was inversely proportional to the COX inhibitory potential of the test compound. The prostanoid product was quantified via enzyme immunoassay (EIA) using a broadly specific antibody that binds to all the major forms of Prostaglandin, using Cayman ELISA kit as per the procedure outlined by the manufacturer Cayman Chemicals, Ann Arbor, USA).

[3] = test system: TNF-α; assay: LPS induced sepsis for measurement of TNF-α inhibition in mice; format: in vivo; conditions: 50 mg/kg bw oral; female Swiss albino mice; serum 90 minutes after LPS
Method: LPS Induced Sepsis for Measurement of TNF-α Inhibition in Mice
The LPS induced sepsis model in mice was performed as described by Les sekut et al (J Lab Clin Med 1994; 124:813-20). Female Swiss albino mice were selected with their body weights being equivalent within each group. The mice were fasted for 20 hours with free access to water. The mice were dosed orally with the test compound suspended in vehicle containing 0.5% Tween 80 in 0.25% Carboxy-methylcellulose sodium salt. The control mice were administered the vehicle alone. After 30 minutes of oral dosing, the mice were injected with 500 μg of Lipopolysaccharide (Escherichia coli, LPS: B4 from Sigma) in phosphate buffer saline solution into the intraperitoneal cavity of the mice. After 90 minutes of LPS administration, the mice were bled via retro-orbital sinus puncture. Blood samples were stored overnight at 4° C. Serum samples were collected by centrifuging the samples at 4000 rpm for 15 minutes at 4° C. Immediately the serum samples were analysed for TNF-α levels, using commercially available mouse TNF-α ELISA kit (Amersham Biosciences) and assay was performed by the manufacturer instruction.

[4] = target: T1, purified recombinant COX-2 enzyme (Homo sapiens, UniProt P35354); assay: COX-2 enzyme based assay; format: biochemical; conditions: Conc. 10 μM
T1 sequence (P35354 18-604): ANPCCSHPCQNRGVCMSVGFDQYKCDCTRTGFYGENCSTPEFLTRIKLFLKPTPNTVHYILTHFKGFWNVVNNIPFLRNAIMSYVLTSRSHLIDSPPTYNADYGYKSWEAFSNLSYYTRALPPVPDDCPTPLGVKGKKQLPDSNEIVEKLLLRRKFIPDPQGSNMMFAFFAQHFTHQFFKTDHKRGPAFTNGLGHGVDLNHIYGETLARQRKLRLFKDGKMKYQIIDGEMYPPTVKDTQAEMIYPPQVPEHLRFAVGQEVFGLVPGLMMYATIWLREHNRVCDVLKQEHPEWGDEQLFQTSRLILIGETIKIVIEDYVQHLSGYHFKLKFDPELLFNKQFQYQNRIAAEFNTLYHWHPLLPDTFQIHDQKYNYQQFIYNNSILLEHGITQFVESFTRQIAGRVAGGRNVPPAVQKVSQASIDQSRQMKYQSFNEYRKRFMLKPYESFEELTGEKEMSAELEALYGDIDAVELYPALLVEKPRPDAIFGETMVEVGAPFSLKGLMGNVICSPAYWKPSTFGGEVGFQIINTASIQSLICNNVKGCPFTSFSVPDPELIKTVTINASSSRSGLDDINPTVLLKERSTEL
Method: as §1, §2, §3

[5] = test system: NCI-H460; assay: Anti-cancer screen (MTT), NCI-H460; format: cell-based
Method: (§4) Experimental drugs are screened for anti-cancer activity in three cell lines for their GI50, TGI and LC50 values (using five concentrations for each compound). The cell lines are maintained in DMEM containing 10% fetal bovine serum. 96 well microtiter plates are inoculated with cells in 100 μL for 24 h at 37° C., 5% CO2, 95% air and 100% relative humidity. 5000 HCT116 cells/well, 5000 NCIH460 cells/well, 10000 U251 cells/well and 5000 MDAMB231 cells/well are plated. A separate plate with these cell lines is also inoculated to determine cell viability before the addition of the compounds (T0).
Following 24 hours incubation, experimental drugs are added to the 96 well plates. […] Compounds are dissolved in dimethylsulfoxide (DMSO) to make 20 mM stock solutions on the day of drug addition and frozen at −20° C. […] Standard drugs whose anti-cancer activity has been well documented and which are regularly used are doxorubicin and SAHA.
(§5) Cells are incubated with compounds for 48 hours followed by the addition of 10 μL 3-(4,5-Dimethyl-2-thiazolyl)-2,5-diphenyl-2H-tetrazolium (MTT) solution per well and a subsequent incubation at 37° C., 5% CO2, 95% air and 100% relative humidity, protected from light. After 4 hours, well contents are aspirated carefully followed by addition of 150 μL DMSO per well. Plates are agitated to ensure solution of the formazan crystals in dimethylsulphoxide and absorbance read at 570 nm.
Percent growth is calculated for each compound's concentration relative to the control and zero measurement wells (To; viability right before compound addition). If a test well's O.D. value is greater than the To measurement for that cell line % Growth=(test−zero)/(control−zero)×100
If a test well's O.D. value is lower than the T0 measurement for that cell line, […]

[6] = test system: SF-268; assay: Anti-cancer screen (MTT), SF-268; format: cell-based; conditions: Conc. 100 μM
Method: [The source words this procedure for another cell line and reports this cell line under the same test.] as §4
(§6) Following 24 hours incubation, experimental drugs are added to the 96 well plates. Each plate contains one of the above cell lines and the following in triplicate: five different concentrations (0.01, 0.1, 1, 10 and 100 μM) of four different compounds, appropriate dilutions of a cytotoxic standard and control (untreated) wells. Compounds are dissolved in dimethylsulfoxide (DMSO) to make 20 mM stock solutions on the day of drug addition and frozen at −20° C. Serial dilutions of these 20 mM stock solutions are made in complete growth medium such that 100 μL of these drug solutions in medium, of final concentrations equaling 0.01, 0.1, 1, 10 and 100 μM can be added to the cells in triplicate. Standard drugs whose anti-cancer activity has been well documented and which are regularly used are doxorubicin and SAHA.
as §5
(§7) Percent growth is calculated for each compound's concentration relative to the control and zero measurement wells (To; viability right before compound addition). […]

[7] = test system: MCF-7; assay: Anti-cancer screen (MTT), MCF-7; format: cell-based; conditions: Conc. 100 μM
Method: [The source words this procedure for another cell line and reports this cell line under the same test.] as §4, §6, §5, §7

[8] = target: T2, COX-2 (Homo sapiens, UniProt P35354); assay: Human whole blood assay, COX-2 inhibition (PGE2 after LPS); format: cell-based; conditions: LPS stimulated; for inhibition at 0.25 µM: Conc. 0.25 μM
T2 construct: Fresh blood was collected in tubes containing sodium heparin by vein puncture from healthy male volunteers; endogenous in cells; host or cells: human whole blood from healthy male volunteers, stimulated with LPS
T2 sequence (P35354 18-604): T1 sequence (P35354 18-604)
Method: Human whole blood provides a protein and cell rich milieu appropriate for the study of biochemical efficacy of anti-inflammatory compounds such as selective COX-2 inhibitors. […] This is correlating with the observation that COX-2 inhibitors have no effect on prostaglandin E2 (PGE2) production in normal blood. These inhibitors were active only after incubation of human blood with lipopolysaccharide (LPS), which induces COX-2 production in the blood.
Fresh blood was collected in tubes containing sodium heparin by vein puncture from healthy male volunteers. […] Then test compounds (at various concentrations) or vehicle were added to blood. After that blood was stimulated with LPS B: 4 (10 μg/ml) and incubated for another 18 hours at 37° C. water bath. After which the blood was centrifuged, plasma was separated and stored at −80° C. (J. Pharmacol. Exp. Ther, 271, 1705, 1994; Proc. Natl. Acad. Sci. USA., 96, 7563, 1999). The plasma was assayed for PGE2 using Cayman ELISA kit as per the procedure outlined by the manufacturer (Cayman Chemicals, Ann Arbor, USA).

[9] = test system: IL-6; assay: In vitro measurement of IL-6 in human PBMC; format: cell-based; conditions: Conc. 0.1 μM, LPS
Method: (§8) In vitro Measurement of Interleukin-6 (IL-6) & Interleukin-1β (IL1β)
(§9) This assay determines the effect of test compounds on the production of IL-6 and IL1β in human PBMC (Physiol. Res. 52: 593-598, 2003). Compounds were tested for their ability to inhibit the activity of IL-6 and IL1β in human PBMC. PBMC were isolated from blood using BD Vacutainer CPT™ Cell preparation tube (BD Bio Science) and suspended in RPMI medium. The test compounds were preincubated with PBMC (0.5 million/incubation well) for 15 minutes at 37° C. and then stimulated with Lipopolysaccharide (Escherichia coli: B4; 1 μg/ml) for 18 hours at 37° C. in 5% CO2. The levels of IL-6 and IL1β in cell culture medium were estimated using enzyme linked Immunosorbent assay performed in a 96 well format as per the procedure of the manufacturer (R&D Systems, Inc. 614 McKinley Place Nebr., Minneapolis, Minn. 55413, USA).

[10] = test system: IL-1β; assay: In vitro measurement of IL-1β in human PBMC; format: cell-based; conditions: Conc. 0.1 μM, LPS
Method: as §8, §9

Chain of purified recombinant COX-1 enzyme (P23219 24-599): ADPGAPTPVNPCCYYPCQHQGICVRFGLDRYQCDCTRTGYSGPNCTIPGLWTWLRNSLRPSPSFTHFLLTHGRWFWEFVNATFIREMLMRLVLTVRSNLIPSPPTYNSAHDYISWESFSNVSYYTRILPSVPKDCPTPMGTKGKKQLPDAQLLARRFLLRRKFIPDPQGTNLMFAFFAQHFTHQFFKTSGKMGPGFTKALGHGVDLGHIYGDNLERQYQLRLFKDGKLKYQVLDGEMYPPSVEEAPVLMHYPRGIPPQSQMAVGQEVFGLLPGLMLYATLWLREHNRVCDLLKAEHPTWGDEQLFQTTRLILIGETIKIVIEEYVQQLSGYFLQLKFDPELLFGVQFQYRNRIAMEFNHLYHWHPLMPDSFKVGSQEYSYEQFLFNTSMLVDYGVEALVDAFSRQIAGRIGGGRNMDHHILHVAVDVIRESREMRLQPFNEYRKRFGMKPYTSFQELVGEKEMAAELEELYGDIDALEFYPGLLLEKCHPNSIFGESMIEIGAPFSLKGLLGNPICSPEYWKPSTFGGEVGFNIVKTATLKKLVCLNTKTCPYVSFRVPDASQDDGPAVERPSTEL

## CNc1nc(-c2cccnc2)nc(SC)c1C(=O)Nc1ccc(OC)cc1 [Example 6, N-(4-Methoxyphenyl)-4-(methylamino)-6-(methylthio)-2-pyridin-3-ylpyrimidine-5-carboxamide]
[1]
  IC50: 0.86 µM
  inhibition at 0.1 µM: 30.3%
[2]
  inhibition at 10 µM: 28.8%
other
  melting point: 184 to 197 °C
[3]
  TNF-α Inhibition (%) at 50 mg/kg bw: 77.0%
[4]
  inhibition at 10 µM: 19.3%

## CCc1ccc(NC(=O)c2c(NC)nc(-c3ccc(SC)cc3)nc2SC)cc1 [Example 8, N-(4-Ethylphenyl)-4-(methylamino)-6-(methylthio)-2-[4-(methylthio)phenyl]pyrimidine-5-carboxamide]
[1]
  inhibition at 0.1 µM: 27.8%
[5]; Conc. 100 μM
  Percentage growth Lung NCI-H460: 0%
[6]
  Percentage growth CNS SF-268: 1%
[7]
  Percentage growth Breast MCF-7: 4%

## CNc1nc(-c2ccc(S(N)(=O)=O)cc2)nc(NC)c1C(=O)Nc1ccc(C)c(C)c1 [Example 10, 2-[4-(Aminosulfonyl)phenyl]-4,6-bis(methylamino)-N-(3,4-dimethylphenyl)pyrimidine-5-carboxamide]
[8]; Conc. 10 μM
  inhibition at 10 µM: 24.2%

## CNc1nc(-c2ccc(S(N)(=O)=O)cc2)nc(SC)c1C(=O)Nc1ccc(C)cc1 [Example 12, 2-[4-(Aminosulfonyl)phenyl]-4-(methylamino)-N-(4-methylphenyl)-6-(methylthio)pyrimidine-5-carboxamide]
[8]
  inhibition at 0.25 µM: 24.9%

## CNc1nc(-c2ccc(S(N)(=O)=O)cc2)nc(NC)c1C(=O)Nc1ccc(C)cc1 [Example 13, 2-[4-(Aminosulfonyl)phenyl]-4,6-bis(methylamino)-N-(4-methylphenyl)pyrimidine-5-carboxamide]
[8]
  inhibition at 0.25 µM: 24.5%
[9]
  inhibition at 0.1 µM: 21.5%
[10]
  IL-1β Inhibition (%): Not active

## CNc1nc(-c2cccnc2)nc(NC)c1C(=O)Nc1ccc(OC)cc1 [Example 28, N-(4-Methoxyphenyl)-4,6-bis(methylamino)-2-pyridin-3-ylpyrimidine-5-carboxamide]
[1]
  IC50: 0.9 µM
  inhibition at 1 µM: 45.1%
[2]
  inhibition at 10 µM: 25.5%
[3]
  TNF-α Inhibition (%) at 50 mg/kg bw: 81.5%
[4]
  inhibition at 10 µM: 23.2%

## CSc1nc(-c2ccncc2)nc(NCCO)c1C(=O)Nc1ccc(C)cc1 [Example 35, 4-[(2-Hydroxyethyl)amino]-N-(4-methylphenyl)-6-(methylthio)-2-pyridin-4-ylpyrimidine-5-carboxamide]
[1]
  IC50: 1.8 µM
  inhibition at 1 µM: 52.7%
[2]
  inhibition at 10 µM: 15.2%
[3]
  TNF-α Inhibition (%) at 50 mg/kg bw: 59.94%
[4]
  inhibition at 10 µM: 26.8%
[5]; Homo sapiens, NCI-H460, 48 hours, MTT
  GI50: 9 µM

## CSc1nc(-c2ccncc2)nc(NCCO)c1C(=O)Nc1ccc(C)c(C)c1 [Example 37, N-(3,4-Dimethylphenyl)-4-[(2-hydroxyethyl)amino]-6-(methylthio)-2-pyridin-4-ylpyrimidine-5-carboxamide]
[1]
  IC50: 1.5 µM
  inhibition at 1 µM: 42.7%
[2]
  inhibition at 10 µM: 6.58%
[3]
  TNF-α Inhibition (%) at 50 mg/kg bw: 66.65%
[4]
  inhibition at 10 µM: 17.1%
